Experimental data taken from patent US12326385B2, “Cell-permeable fluorogenic fluorophores” (MAX-PLANCK-GESELLSCHAFT ZUR FÖRDERUNG DER WISSENSCHAFTEN E. …, priority 2018, dated 2025).
Marks after values point to notes of the source that are not given here.

Legend:
[1] = test system: U2OS FlpIn Halo-SNAP-NLS expressing cells; test: No-wash live-cell confocal imaging, nuclear versus cytosol signal; format: cell-based; settings: for Fnuc./Fcyt.: average ratio between nuclear signal (U2OS FlpIn Halo-SNAP-NLS expressing cells) and cytosol signal (normal U2OS cell), ± s.e.m.; for signal and background in no-wash live-cell imaging: no washing
Source text: Self-labeling protein tags such as SNAP-tag and HaloTag are an efficient approach to attach synthetic fluorophores to proteins in living cells. The main challenge when using these tags for live-cell imaging is the low cell permeability of most fluorescent probes used for labeling and high background signal resulting from their unspecific binding. SNAP-tag fusion proteins can be specifically labeled with different fluorophores using appropriate O^6-benzlyguanine derivatives. A 6-TAMRA based probe (150) for SNAP-tag has been previously introduced for live-cell imaging, but its low cell-permeability and lack of fluorogenicity requires the use of high concentrations (5 μM) and repeated washing steps to remove excess and non-specifically bound probe. To address these problem, the inventors coupled fluorophores 132-135 to O^6-benzylguanine to obtain probes 152, 154, 156, and 158. […] The inventors then examined the performance of probes 150, 152, 154, 156, and 158 in live-cell imaging, in which U2OS cells stably expressing a nuclear localized SNAP-Halo fusion protein were co-cultured with regular U2OS cells not expressing any protein tags. […] Furthermore, the kinetics of labeling of nuclear localized SNAP-tag with MaP555-SNAP were much faster than those of control […]. The inventors then prepared the corresponding 6-TAMRA-based probes 151, 153, 155, 157, and 159 for HaloTag. As for SNAP-tag, the probe with the largest enhancement in absorbance (16-fold) and fluorescence intensity (35-fold) in in vitro assays was based on the N,N-dimethylsulfamide derivative 159 (abbreviated as MaP555-Halo in the following). […] The excellent performance of MaP555-SNAP and MaP555-Halo in live-cell imaging experiments support the inventors' assumption that establishing a dynamic equilibrium between the fluorescent zwitterion and the more hydrophobic spirolactam enables the generation of highly cell-permeable and fluorogenic probes for live-cell imaging.
Generation of U2OS FlpIn Halo-SNAP-NLS Cell Lines
The Flp-In™ System (ThermoFisher Scientific) was used to generated U2OS FlpIn Halo-SNAP-NLS expressing cells. pcDNA5-FRT-Halo-SNAP-NLS and pOG44 were co-transfected into the host cell line U2OS FLpIn (Malecki et al. Molecular and Cellular Biology 26, 4642 (2006)). Homologous recombination between the FRT sites in pcDNA5-FRT-Halo-SNAP-NLS and on the host cell chromosome, catalysed by the Flp recombinase expressed from pOG44, produced the U2OS FlpIn Halo-SNAP-NLS stably expressing cells.
Live-Cell Confocal Imaging
U2OS FlpIn Halo-SNAP-NLS expressing cells were grown in 96-well plate (Thermos Fisher) with optical bottom at 37° C. in a humidified 5% (vol/vol) CO2 environment. 50-500 nM probes and 2 μM verapamil were added and incubated for 1 h in DMEM media (Evrogen) containing 10% FBS. The cells were directly used to image without washing. Meanwhile, another group was imaged after being washed 2 times for 5 min with 1× phosphate buffered saline (PBS, pH 7.4) and DMEM supplemented with 10% FBS. Imaging was performed using Leica TCS SP8 confocal microscope. TMR- and Rhodamine B—, and Rhodamine 110-based probes were excited at 540 nm and the fluorescence signal was collected from 560-700 nm. Semi-Rhodamine-based probes were excited at 650 nm and the fluorescence signal was […] from 670-760 nm. Images were processed with Fiji (http://fiji.sc/wiki/index.php/Fiji) to obtain MIP (maximum intensity projections)

[2] = test system: SNAP-Halo-tag; test: Increase in absorbance and fluorescence on binding to SNAP-HaloTag protein in vitro; format: biochemical; settings: for Φ / ε^protein / λabs / λem: binding with SNAP-Halo-tag; for F/F0: ± s.e.m.
Description: Measurement of Increase in Absorbance and Fluorescence.
SNAP-HaloTag protein were used as a 85 μM-200 μM solution in 75 mM NaCl, 50 mM TRIS-HCl, pH 7.4 with 50% v/v glycerol (TBS-glycerol). SNAPTag and HaloTag based fluorogenic probes were diluted to 1.0-2.0 μM in 10 mM HEPES, pH 7.3. Then an aliquot of SNAPTag/HaloTag protein (1.5-2.0 equiv) was added and the resulting mixture was incubated until consistent absorbance signal was observed (˜60 min).
(§1) SDS (10% in 10 mM HEPES) was added with dilution of 100 folds as a control group. Absorbance and fluorescence measurements were performed in 96-well plate (Thermos Fisher) with optical bottom.

[3] = UV-Vis and fluorescence spectroscopy of free dye or probe in buffer or SDS; format: physicochemical; settings: for Φ / ε^SDS: 0.1% SDS in HEPES buffer (pH 7.3); for ε: HEPES buffer (pH 7.3)
Description: UV-Vis and Fluorescence Spectroscopy
Spectroscopy was performed using 96-well plate (Thermo Fisher) with optical bottom. All measurements were taken at ambient temperature (25±2° C.). Absorption and fluorescence spectra were recorded on Spark® microplate reader (Tecan). Maximum absorption wavelength (λabs), and maximum emission wavelength (λem) were taken in 10 mM HEPES, pH 7.3 buffer unless otherwise noted; reported values for ε are averages (n=3). Normalized spectra are shown for clarity.
as §1

[4] = ratio of fluorescence intensities at 580 nm in the presence and absence of SNAP-Halo-tag
[5] = upon binding to HaloTag, in vitro
[6] = ratio of fluorescence intensities at 635 nm in the presence and absence of SNAP-Halo-tag

Φ [2] | ε^protein [2] | λabs [2] [nm] | λem [2] [nm] | F/F0 [2, 4] | Φ [3] | ε^SDS [3] | ε [3] | increase in absorbance [2, 5] [fold] | increase in fluorescence intensity [2, 5] [fold] | F/F0 [2, 6] | SMILES | Fnuc./Fcyt. [1] | signal and background in no-wash live-cell imaging ([1]; U2OS cells) | intracellular kinetics of labeling relative to control probe ([1]; nuclear localized SNAP-tag or HaloTag in U2OS cells) | nuclei to cytosol signal ratio (Fnuc/Fcyt) ([1]; no-wash live-cell imaging, U2OS cells, 250 nM for MaP555-SNAP and MaP700-Halo) | time to staining / saturation / completion of labeling ([1]; nuclear localized HaloTag in U2OS cells, 250 nM for MaP510-Halo and MaP700-Halo) [min] | fluorogenicity on binding to tag or target protein ([2]; in vitro) | F/F0 ([2]; ratio of fluorescence intensities at 720 nm in the presence and absence of SNAP-Halo-tag)
0.46 | 71,000 M^−1cm^−1 | 557 | 580 | 7.3 ± 0.8^e | 0.71 | 79,000 M^−1cm^−1 | 15,000 M^−1cm^−1 |  |  |  | CN(C)c1ccc2c(c1)Oc1cc(N(C)C)ccc1C21c2cc(C(=O)NCCOCCOCCCCCCCl)ccc2C(=O)N1C#N [compound 153] | 10 ± 0.4^f |  |  |  |  |  | 
0.54 | 87,000 M^−1cm^−1 | 558 | 578 | 35 ± 2.3^e | 0.63 | 92,000 M^−1cm^−1 | 5,200 M^−1cm^−1 | 16 | 35 |  | CN(C)c1ccc2c(c1)Oc1cc(N(C)C)ccc1C21c2cc(C(=O)NCCOCCOCCCCCCCl)ccc2C(=O)N1S(=O)(=O)N(C)C [compound 159] | 18 ± 2.9^f | much lower background signal | about two-fold faster |  |  |  | 
0.53 | 144,000 M^−1cm^−1 | 618 | 635 |  | 0.72 | 70,000^c M^−1cm^−1 | 1,500 M^−1cm^−1 |  |  | 112 ± 3.8^e | CN(C)c1ccc2c(c1)C(C)(C)c1cc(N(C)C)ccc1C21c2cc(C(=O)NCCOCCOCCCCCCCl)ccc2C(=O)N1C#N [compound 161] | 19 ± 1.2^f |  |  |  |  |  | 
0.46 | 57,000 M^−1cm^−1 | 557 | 578 | 13 ± 2.4^e | 0.62 | 89,000 M^−1cm^−1 | 9,800 M^−1cm^−1 |  |  |  | CN(C)c1ccc2c(c1)Oc1cc(N(C)C)ccc1C21c2cc(C(=O)NCc3ccc(COc4nc(N)nc5[nH]cnc45)cc3)ccc2C(=O)N1S(N)(=O)=O [compound 156] | 9.8 ± 0.8^f |  |  |  |  |  | 
0.42 | 66,000 M^−1cm^−1 | 555 | 578 | 7.9 ± 0.2^e | 0.61 | 82,000 M^−1cm^−1 | 22,000 M^−1cm^−1 |  |  |  | CN(C)c1ccc2c(-c3cc(C(=O)NCc4ccc(COc5nc(N)nc6[nH]cnc56)cc4)ccc3C(=O)[O-])c3ccc(=[N+](C)C)cc-3oc2c1 [compound 150, reference compound] | 1.8 ± 0.1^f | barely detectable signal |  |  |  |  | 
0.33 | 68,000 M^−1cm^−1 | 558 | 580 | 18 ± 2.6^e | 0.58 | 82,000 M^−1cm^−1 | 18,000 M^−1cm^−1 |  |  |  | CN(C)c1ccc2c(c1)Oc1cc(N(C)C)ccc1C21c2cc(C(=O)NCc3ccc(COc4nc(N)nc5[nH]cnc45)cc3)ccc2C(=O)N1C#N [compound 152] | 8.1 ± 0.9^f |  |  |  |  |  | 
0.56 | 87,000 M^−1cm^−1 | 558 | 580 | 19 ± 3.2^e | 0.65 | 91,000 M^−1cm^−1 | 9,600 M^−1cm^−1 |  |  |  | CN(C)c1ccc2c(c1)Oc1cc(N(C)C)ccc1C21c2cc(C(=O)NCCOCCOCCCCCCCl)ccc2C(=O)N1S(N)(=O)=O [compound 157] | 14 ± 0.7^f |  |  |  |  |  | 
0.50 | 121,000 M^−1cm^−1 | 618 | 635 |  | 0.76 | 45,000^c M^−1cm^−1 | 1,600 M^−1cm^−1 |  |  | 179 ± 14^e | CN(C)c1ccc2c(c1)C(C)(C)c1cc(N(C)C)ccc1C21c2cc(C(=O)NCCOCCOCCCCCCCl)ccc2C(=O)N1S(C)(=O)=O [compound 163] | 24 ± 1.8^f |  |  |  |  |  | 
0.51 | 82,000 M^−1cm^−1 | 555 | 578 | 1.8 ± 0.1^e | 0.68 | 87,000 M^−1cm^−1 | 58,000 M^−1cm^−1 |  |  |  | CN(C)c1ccc2c(-c3cc(C(=O)NCCOCCOCCCCCCCl)ccc3C(=O)O)c3ccc(=[N+](C)C)cc-3oc2c1 [compound 151, reference compound] | 9.4 ± 1.7^f |  |  |  |  |  | 
0.61^b/— | 107,000 M^−1cm^−1 | 618 | 635 |  |  | 7,200^c M^−1cm^−1 | 260 M⁻¹ cm⁻¹ |  | 1000 | 1000 ± 44^e | CN(C)c1ccc2c(c1)C(C)(C)c1cc(N(C)C)ccc1C21c2cc(C(=O)NCCOCCOCCCCCCCl)ccc2C(=O)N1S(=O)(=O)N(C)C [compound 167] | 58 ± 3.9^f |  |  | 58 | ≤ 5 |  | 
0.38 | 65,000 M^−1cm^−1 | 558 | 580 | 9.7 ± 0.1^e | 0.65 | 86,000 M^−1cm^−1 | 15,000 M^−1cm^−1 |  |  |  | CN(C)c1ccc2c(c1)Oc1cc(N(C)C)ccc1C21c2cc(C(=O)NCc3ccc(COc4nc(N)nc5[nH]cnc45)cc3)ccc2C(=O)N1S(C)(=O)=O [compound 154] | 7.9 ± 0.9^f |  |  |  |  |  | 
0.58^b/— | 101,000 M^−1cm^−1 | 618 | 635 |  |  | 8,300^c M^−1cm^−1 | 440 M⁻¹ cm⁻¹ |  |  | 611 ± 42^e | CN(C)c1ccc2c(c1)C(C)(C)c1cc(N(C)C)ccc1C21c2cc(C(=O)NCCOCCOCCCCCCCl)ccc2C(=O)N1S(N)(=O)=O [compound 165] | 30 ± 4.5^f |  |  |  |  |  | 

SMILES | Φ [2] | ε^protein [2] | λabs [2] [nm] | λem [2] [nm] | F/F0 [2, 4] | Φ [3] | ε^SDS [3] | ε [3] | increase in absorbance [2, 5] [fold] | increase in fluorescence intensity [2, 5] [fold] | F/F0 [2, 6] | Fnuc./Fcyt. [1] | signal and background in no-wash live-cell imaging ([1]; U2OS cells) | intracellular kinetics of labeling relative to control probe ([1]; nuclear localized SNAP-tag or HaloTag in U2OS cells) | nuclei to cytosol signal ratio (Fnuc/Fcyt) ([1]; no-wash live-cell imaging, U2OS cells, 250 nM for MaP555-SNAP and MaP700-Halo) | time to staining / saturation / completion of labeling ([1]; nuclear localized HaloTag in U2OS cells, 250 nM for MaP510-Halo and MaP700-Halo) [min] | fluorogenicity on binding to tag or target protein ([2]; in vitro) | F/F0 ([2]; ratio of fluorescence intensities at 720 nm in the presence and absence of SNAP-Halo-tag)
CN1CCc2cc3c(cc21)[Si](C)(C)c1cc2c(cc1C31OC(=O)c3ccc(C(=O)NCCOCCOCCCCCCCl)cc31)CCN2C [compound 37, reference compound] | 0.27 | 83,000 M^−1cm^−1 | 695 | 718 |  | 0.25 | 85,000^c M^−1cm^−1 | 38,000 M^−1cm^−1 |  |  |  | 6.7 ± 1.5^f | relatively high background signal |  |  |  | only modest fluorogenicity | 7.5 ± 0.2^e
